Reference: US7803930B2, “Antisense modulation of apolipoprotein B-expression” (Isis Pharmaceuticals, Inc., priority 2002, dated 2010)
In the oligonucleotide strings, read from the 5' end, every base follows the letter of its sugar. An asterisk marks phosphorothioate; unmarked linkages are phosphodiester. Other units and linkages are bracketed, terminal groups are in braces. A string of capitals states the bases alone. e = 2'-O-(2-methoxyethyl) (MOE); [5mC] = 5-methylcytosine; d = 2'-deoxy (DNA)

How the values were obtained:
[1] = Long-term study in lean CD-1 mice (Example 63): serum lipids and indicators of toxicity (ALT, AST, histology, steatosis); format: in vivo, mouse; conditions: one month
Description: In accordance with the present invention, the toxicity of ISIS 301012 (SEQ ID NO: 247) is investigated in a long-term, 3 month study in mice. Two-month old male and female CD-1 mice (Charles River Laboratories, Wilmington, Mass.) are dosed with 2, 5, 12.5, 25 or 50 mg/kg of ISIS 301012 twice per week for first week, and every 4 days thereafter. The mice are maintained on a standard rodent diet. Saline and control oligonucleotide animals serve as controls and are injected on the same schedule. Each treatment group contains 6 to 10 mice of each sex, and each treatment group is duplicated, one group for a 1 month study termination, the other for a 3 month study termination. After the 1 or 3 month treatment periods, the mice are sacrificed and evaluated for target expression in liver, lipid levels in serum and indicators of toxicity. Liver samples are procured, RNA is isolated and apolipoprotein B mRNA expression is measured by real-time PCR as described in other examples herein. Serum lipids, including total cholesterol, LDL-cholesterol, HDL-cholesterol and triglycerides, are evaluated by routine clinical analysis using an Olympus Clinical Analyzer (Olympus America Inc., Melville, N.Y.). Ratios of LDL-cholesterol to HDL-cholesterol and total cholesterol to HDL-cholesterol are also calculated. Analyses of serum ALT and AST, inflammatory infiltrates in tissue and basophilic granules in tissue provide an assessment of toxicities related to the treatment. Hepatic steatosis, or accumulation of lipids in the liver, is assessed by routine histological analysis with oil red 0 stain and measurement of liver tissue triglycerides using a Triglyceride GPO Assay (Sigma-Aldrich, St. Louis, Mo.).
The toxicity study also includes groups of animals allowed to recover following cessation of oligonucleotide treatment. Both male and female CD-1 mice (Charles River Laboratories, Wilmington, Mass.) are treated with 5, 10, 50 mg/kg of ISIS 301012 twice per week for the first week and every 4 days thereafter. Saline and, control oligonucleotide injected animals serve as controls. Each treatment group includes 6 animals per sex. After 3 months of treatment, animals remain untreated for an additional 3 months, after which they are sacrificed. The same parameters are evaluated as in the mice sacrificed immediately after 3 months of treatment.
Additionally, the expected dose-response toxicities were observed. ALT and AST levels, measured by routine clinical procedures on an Olympus Clinical Analyzer (Olympus America Inc., Melville, N.Y.), are increased in mice treated with 25 or 50 mg/kg of ISIS 301012. Tissues were prepared for analysis by routine histological procedures.

[2] = test system: mouse apolipoprotein B mRNA; test: Inhibition of mouse apolipoprotein B mRNA levels in primary mouse hepatocytes, real-time PCR; format: cell-based
How it was run: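 Primary CD-1 mouse hepatocytes transfected at 80% confluency with oligonucleotide plus 3.75 μg/mL LIPOFECTIN for 4-7 h, harvested 16-24 h after treatment. ApoB mRNA measured by real-time quantitative PCR against a standard curve of untreated-control mRNA, giving percent inhibition; GAPDH primers/probe also used.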

| Substance | ALT and AST levels ([1]; 25 or 50 mg/kg) | doses at which basophilic granules in liver and kidney tissue were observed [1] | doses at which mild lymphohistiocytic infiltrates were observed in various tissues [1] | steatosis (oil red O staining) [1] | % INHIB ([2]; Table 3, 150 nM, averages from two experiments) [%] | Percent Inhibition 50 nM ([2]; Table 4, 50 nM) [%] | Percent Inhibition 150 nM ([2]; Table 4, 150 nM) [%] | Percent Inhibition 300 nM ([2]; Table 4, 300 nM) [%] |
| --- | --- | --- | --- | --- | --- | --- | --- | --- |
| ISIS 301012: SEQ ID NO: 247, antisense oligonucleotide targeted to human apolipoprotein B (antisense GCCTCAGTCTGCTTCGCACC; chemistry not given here) | increased | above 12.5 mg/kg | above 12.5 mg/kg | no steatosis |  |  |  |  |
| 147764 (eG*eT*e[5mC]*e[5mC]*e[5mC]*dT*dG*dA*dA*dG*dA*dT*dG*dT*d[5mC]*eA*eA*eT*eG*e[5mC]) [compound 147764] |  |  |  |  | 97 | 48 | 84 | 90 |
